Measurements published in paper PMC5269379 (Organic letters, 2016).
Entries after “also recorded” stand apart in the source; their conditions may differ.

What was measured:
L. lactis 481 = format: cell-based, Lactococcus lactis; conditions: for individual MIC: peptide alone; for individual MIC / combined with CylLL″ MIC: L. lactis 481; for combined with CylLL″ MIC: concentration of each component
rabbit red blood cells = experiment: Synergistic hemolytic activity in combination with CylLL″; format: cell-based; conditions: Figure S6
[1] = test system: Lactococcus lactis HP and L. lactis CNRZ 481; experiment: Antimicrobial activity assay; format: cell-based; conditions: in combination with CylLL″; Figures S2, S5

| Substance | individual MIC (L. lactis 481) [µM] | hemolytic activity (in words) (rabbit red blood cells) | combined with CylLL″ MIC (L. lactis 481; combined with CylLL″) [µM] | antimicrobial activity (in words) [1] | fold increase of MIC in liquid culture (L. lactis 481; combined with CylLL″, liquid culture) [fold] |
| --- | --- | --- | --- | --- | --- |
| cytolysin L [CylLL″, reference compound] | >50 |  |  |  |  |
| cytolysin S [CylLS″, reference compound] | >50 | very similar hemolytic activity | 0.05 |  |  |
| CylLS″-Dhb2Dha (DL-A ring, DL-B ring) [compound 11] | >50 | no decrease of hemolytic activity | 1.0 | decreased antimicrobial activity; also recorded: markedly smaller zone of growth inhibition | 10 |
| CylLS″-Dhb2Dha (LL-A ring, DL-B ring) [synthetic 12] | >50 |  | 0.1 | identical antimicrobial activity |  |
| CylLS″-Dhb2Dha [biosynthetic 12] | >50 | very similar hemolytic activity | 0.1 | very similar antimicrobial activity |  |
